In series [1] the test system is S. aureus TCH 1516. As to the kind of experiment: Broth microdilution MIC, S. aureus TCH 1516. In kind it is cell-based, Staphylococcus aureus. To be noted: mecA MRSA isolate, USA300 lineage; CAMHB, 18 ± 2 h. The text has this:
(§1) The multidrug-resistant S. aureus strain TCH 1516 [USA 300-HOU-MR] was obtained from the American Type Culture Collection (ATCC, Manassas, VA, USA) (Table 1). E. faecalis AR-0671, multidrug-resistant E. coli AR-0001, K. pneumoniae AR-0003, P. aeruginosa AR-1114, and A. baumannii AR-0273 strains were acquired from the Centers for Disease Control and Prevention (CDC) AR isolate bank (Table 1). Prior to the initiation of this study, all microbial strains were stored in commercial cryopreservation systems at a temperature of −80 °C. The strains were cultivated on Columbia sheep blood agar (Becton Dickinson, Franklin Lakes, NJ, USA) or potato dextrose agar (PDA) for Candida (Becton Dickinson, Franklin Lakes, NJ, USA).
(§2) The antimicrobial activity of 3-((3-hydroxyphenyl)amino)propanoic acid derivatives was assessed by using the broth microdilution method, following the guidelines outlined by the Clinical Laboratory Standards Institute (CLSI), with modifications. In brief, the compounds were dissolved in dimethyl sulfoxide (DMSO) to attain a final concentration of 25–30 mg/mL. Vancomycin hydrochloride (MedChem express, Cat. No. HY-17362), cefazolin (MedChem express, Cat. No. HY-B1892), and meropenem (MedChem express, Cat. No. HY-13678) were used as control antimicrobial drugs and were dissolved in DMSO as described before. Dilution series were prepared in deep 96-well microplates to achieve a two-fold concentration range of 0.25, 0.5, 1, 2, 4, 8, 16, 32, and 64 µg/mL, utilizing cation-adjusted Mueller–Hinton broth (CAMHB) as the growth medium. The microplates containing the dilution series were then inoculated with fresh cultures of each tested organism to reach a final concentration of 5 × 10^4 CFU (colony-forming units) of the test organism in media containing 1% DMSO and 1× drug concentration, with a volume of 200 µL per well. Wells that were inoculated with medium containing 1% DMSO served as positive controls. Subsequently, the microplates were incubated at 35 ± 1 °C for 18 ± 2 h. Following the incubation period, the plates were examined by using a manual microplate viewer (Sensititre Manual Viewbox, ThermoFisher Scientific, Waltham, MA, USA). […] All experiments were conducted in duplicate with three technical replicates for each condition.
A general note: Dilution methods test growth across graded concentrations, often in twofold steps.

The test system of another series is E. faecalis AR-0671. As to the kind of experiment: Broth microdilution MIC, E. faecalis AR-0671. In kind it is cell-based, Enterococcus faecalis. Particulars: for MIC: Enterococcus faecalis.
Text: as §1, §2

In series [2] the test system is E. coli AR-0001. The series is described as follows: Broth microdilution MIC, E. coli AR-0001. In kind it is cell-based, Escherichia coli. Particulars: for MIC: Escherichia coli, AR0001, read-out: minimal inhibitory concentration (MIC) E. coli AR-0001.
Text: as §1, §2

For series [3], the system named is K. pneumoniae AR-0003. The series is described as follows: Broth microdilution MIC, K. pneumoniae AR-0003. In kind it is cell-based, Klebsiella pneumoniae. Particulars: for MIC: Klebsiella pneumoniae, AR0003, read-out: minimal inhibitory concentration (MIC) K. pneumoniae AR-0003.
Text: as §1, §2

The subject of series [4] is P. aeruginosa AR-1114. The series is described as follows: Broth microdilution MIC, P. aeruginosa AR-1114. Format: cell-based, Pseudomonas aeruginosa. Particulars: for MIC: Pseudomonas aeruginosa, AR1114, read-out: minimal inhibitory concentration (MIC) P. aeruginosa AR-1114.
Text: as §1, §2

A further series deals with A. baumannii AR-0273. As to the kind of experiment: Broth microdilution MIC, A. baumannii AR-0273. Format: cell-based, Acinetobacter baumannii. Particulars: for MIC: Acinetobacter baumannii.
Text: as §1, §2

Series [5] has as its system S. aureus TCH 1516. As to the kind of experiment: Broth microdilution MIC, S. aureus TCH 1516. Format: cell-based. To be noted: Staphylococcus aureus.
The subject of series [6] is E. coli AR-0001. The series is described as follows: Broth microdilution MIC, E. coli AR-0001. In kind it is cell-based. To be noted: Escherichia coli, AR0001; multidrug-resistant, KPC-3; CAMHB, 18 ± 2 h; read-out: minimal inhibitory concentration (MIC) E. coli AR-0001.
For series [7], the system named is K. pneumoniae AR-0003. As to the kind of experiment: Broth microdilution MIC, K. pneumoniae AR-0003. Format: cell-based. Particulars: Klebsiella pneumoniae, AR0003; KPC-3; CAMHB, 18 ± 2 h; read-out: minimal inhibitory concentration (MIC) K. pneumoniae AR-0003.
Series [8] deals with P. aeruginosa AR-1114. As to the kind of experiment: Broth microdilution MIC, P. aeruginosa AR-1114. Particulars: Pseudomonas aeruginosa, AR1114; IMP-15; CAMHB, 18 ± 2 h; read-out: minimal inhibitory concentration (MIC) P. aeruginosa AR-1114. In kind it is cell-based.
The next series relates to FaDu cells. As to the kind of experiment: MTT cell viability at fixed 100 µM, FaDu cells. In kind it is cell-based. To be noted: 24 h, described in words (Figure 2). As to the method: Test compounds 2–25 were dissolved in hybridoma-grade dimethyl sulfoxide (Millipore, Sigma, Burlington, MA, USA) to prepare stock solutions at concentrations of 10–25 mg/mL. […] For in vitro anticancer activity screening, the compounds were thawed at room temperature, protected from light, and the aliquots were diluted in complete cell culture media to achieve a final concentration of 100 µM and used for the in vitro assays. The cytotoxicity assays were performed in triplicate.
FaDu cells were obtained from the American Type Culture Collection (Rockville, MD, USA). HEK293 cells were kindly provided by Dr. Iliev lab at the Jill Roberts Institute for Inflammatory Bowel Disease, Weill Cornel Medicine of Cornel University (New York, NY, USA). All cells were cultivated in Dulbecco’s Modified Eagle Medium/Nutrient Mixture F-12 (DMEM/F-12) (Gibco, Waltham, MA, USA), 10% fetal bovine serum (FBS) (Gibco, Waltham, MA, USA), 100 U/mL penicillin, and 100 μg/mL streptomycin (P/S) (Gibco, Waltham, MA, USA). Culturing conditions were maintained at 37 °C in a humidified atmosphere containing 5% CO2. The culture medium was refreshed every 2–3 days, and cells were passaged upon reaching 70–80% confluence.
The in vitro inhibitory effects of the compounds were assessed by using the MTT assay. Briefly, cells were plated in 96-well plates at a density of 1 × 10⁴ cells per well. After the cells were allowed to adhere overnight at 37 °C in 5% CO₂, they were treated with compounds at a concentration of 100 µM in triplicate. Following a 20 h incubation, the MTT reagent was added, and the cells were further incubated for 4 h. The resulting formazan was solubilized in anhydrous DMSO, and absorbance was measured at 570 nm by using a microplate reader. Cell viability was calculated by using the following formula: ([AE − AB]/[AC − AB]) × 100%, where AE, AC, and AB represent the absorbance values of experimental samples, untreated controls, and blank wells, respectively. Data analysis was performed by using GraphPad Prism or QuickCalcs.

[9] abbreviates: AR0671, CAMHB, 18 ± 2 h, read-out: minimal inhibitory concentration (MIC) E. faecalis AR-0671.
[10] abbreviates: AR0273, OXA-23, CAMHB, 18 ± 2 h, read-out: minimal inhibitory concentration (MIC) A. baumannii AR-0273.
[11] abbreviates: MRSA / USA300, mecA MRSA isolate, USA300 lineage, CAMHB, 18 ±, read-out: minimal inhibitory concentration (MIC) S. aureus TCH 1516.
Where [12] appears, read: AR0671, read-out: minimal inhibitory concentration (MIC) E. faecalis AR-0671.
Setting [13] is: AR0273, read-out: minimal inhibitory concentration (MIC) A. baumannii AR-0273.
The mark [14] stands for this setting: MRSA / USA300, read-out: minimal inhibitory concentration (MIC) S. aureus TCH 1516.

In brackets after ≈: the same amount, converted by molar mass. Like-named read-outs stand apart in the source and are kept apart here.

On to `COc1cc(C=NNC(=O)CCN(CCC(=O)NN=Cc2cc(OC)c(OC)c(OC)c2)c2cccc(O)c2)cc(OC)c1OC` [Compound 13, 3,3′-((3-Hydroxyphenyl)azanediyl)bis(N′-(3,4,5-trimethoxybenzylidene)propanehydrazide)], for which the “minimal inhibitory concentration (MIC) S. aureus TCH 1516” value with S. aureus TCH 1516 [1] is greater than 64 µg/mL. The “minimal inhibitory concentration (MIC) E. faecalis AR-0671” value in the series on E. faecalis AR-0671 (CAMHB) is greater than 64 µg/mL. Besides, the MIC in the series on E. faecalis AR-0671 (setting [9]), in the series on A. baumannii AR-0273 (setting [10]), with S. aureus TCH 1516 [5] (setting [11]), in the series on E. coli AR-0001 [6], with K. pneumoniae AR-0003 [7] and in the series on P. aeruginosa AR-1114 [8] was greater than 64 µg/mL throughout. In addition, the “minimal inhibitory concentration (MIC) E. coli AR-0001” value in the series with E. coli AR-0001 [2] (multidrug-resistant, KPC-3, CAMHB) is greater than 64 µg/mL. Besides, the “minimal inhibitory concentration (MIC) K. pneumoniae AR-0003” value with K. pneumoniae AR-0003 [3] (KPC-3, CAMHB) was greater than 64 µg/mL. The “minimal inhibitory concentration (MIC) P. aeruginosa AR-1114” value with P. aeruginosa AR-1114 [4] (IMP-15, CAMHB) was greater than 64 µg/mL. Besides, the “minimal inhibitory concentration (MIC) A. baumannii AR-0273” value in the series with A. baumannii AR-0273 (OXA-23, CAMHB) is greater than 64 µg/mL.

Regarding `O=C(CCN(CCC(=O)NN=Cc1ccc([N+](=O)[O-])s1)c1cccc(O)c1)NN=Cc1ccc([N+](=O)[O-])s1` [Compound 16, 3,3′-((3-Hydroxyphenyl)azanediyl)bis(N′-((5-nitrothiophen-2-yl)methylene)propanehydrazide)], the MIC was 4 µg/mL (≈ 7.15 µM) in the series on E. faecalis AR-0671 (setting [12]); 32 µg/mL (≈ 57.2 µM) in the series with E. coli AR-0001 [2]; greater than 64 µg/mL in the series with K. pneumoniae AR-0003 [3]; greater than 64 µg/mL in the series on P. aeruginosa AR-1114 [4]; greater than 64 µg/mL in the series with A. baumannii AR-0273 (setting [13]); 1 µg/mL (≈ 1.79 µM) in the series with S. aureus TCH 1516 [5] (setting [14]).

Regarding `O=C(CCN(CCC(=O)N/N=C/c1ccc([N+](=O)[O-])o1)c1cccc(O)c1)N/N=C/c1ccc([N+](=O)[O-])o1` [Compound 17], the “minimal inhibitory concentration (MIC) E. faecalis AR-0671” value in the series with E. faecalis AR-0671 (CAMHB) is greater than 64 µg/mL. The MIC in the series with E. faecalis AR-0671 (setting [12]) was greater than 64 µg/mL; in the series on E. coli AR-0001 [2], greater than 64 µg/mL; with K. pneumoniae AR-0003 [3] it was greater than 64 µg/mL; in the series on P. aeruginosa AR-1114 [4], greater than 64 µg/mL; with A. baumannii AR-0273 (setting [13]), greater than 64 µg/mL; in the series with S. aureus TCH 1516 [5] (setting [14]) it was 16 µg/mL (≈ 30.3 µM).

As for `Cc1cc(C)n(C(=O)CCN(CCC(=O)n2nc(C)cc2C)c2cccc(O)c2)n1` [Compound 24, 3,3′-((3-Hydroxyphenyl)azanediyl)bis(1-(3,5-dimethyl-1H-pyrazol-1-yl)propan-1-one)], the MIC in the series with E. faecalis AR-0671 (setting [9]), with A. baumannii AR-0273 (setting [10]), in the series with S. aureus TCH 1516 [5] (setting [11]), in the series on E. coli AR-0001 [6], with K. pneumoniae AR-0003 [7] and in the series with P. aeruginosa AR-1114 [8] was greater than 64 µg/mL each time. In addition, the “post-treatment viability (MTT assay)” value in the series on FaDu cells was “reduced viability”.
